Data on three compounds can be found in US11033518B2, “Pharmaceutical composition containing niclosamide for treating axin-GSK3 interaction-related diseases” (BAOBAB PHARM CO., LTD., priority 2017, dated 2021).

Read-outs that look alike come from different tables or passages of the source. Ends that are not written are not given here.

For test [1] the following is noted: relative to paclitaxel; cited from earlier work.
Test [2] has as its target T1, recombinant GSK3 beta (Homo sapiens, UniProt P49841).
T1 construct: His; made in house; host or cells: Sf9 insect cells; This is inferred: 'the purified recombinant GSK3 beta' points back to the protein of b91
As to the kind of experiment: Surface plasma resonance (SPR) analysis. Format: binding. As to the method:
In order to confirm whether niclosamide directly binds to GSK3, surface plasma resonance (SPR) analysis was conducted.
SPR was carried out using ProteOn™ XPR36 Protein Interaction Array system (Bio-Rad Laboratories, Inc., CA, USA), and the purified recombinant GSK3 beta was immobilized on ProteOn GLH sensor chip. The niclosamide or 19-mer wild-type Axin peptide or mutant peptide (VEPQKAAEEAIHRAEAVQR, mutation underlined) was diluted with phosphate-buffered saline+Tween 20+1% DMSO at different concentrations respectively, and then was flowed into the chip at a rate of 100 μl/min, and the result was analyzed by ProteOn Manager Software 2.0 using the standard Langmuir models for fitting kinetic data. The complex formation ratio was represented by an association constant (ka, in the unit of M−1s−1), and the complex decrement ratio was represented by a dissociation constant (kd, in the unit of s−1) as the following equilibrium equation 1.
The high-affinity interaction is represented by the low dissociation constant, and gradual cognition and binding with interactant (rapid “on rate,” or high ka), and stability of complex formation (slow “off rate,” or low kd) are equal to the equation KD=kd/ka.

T1 sequence (P49841 whole entry): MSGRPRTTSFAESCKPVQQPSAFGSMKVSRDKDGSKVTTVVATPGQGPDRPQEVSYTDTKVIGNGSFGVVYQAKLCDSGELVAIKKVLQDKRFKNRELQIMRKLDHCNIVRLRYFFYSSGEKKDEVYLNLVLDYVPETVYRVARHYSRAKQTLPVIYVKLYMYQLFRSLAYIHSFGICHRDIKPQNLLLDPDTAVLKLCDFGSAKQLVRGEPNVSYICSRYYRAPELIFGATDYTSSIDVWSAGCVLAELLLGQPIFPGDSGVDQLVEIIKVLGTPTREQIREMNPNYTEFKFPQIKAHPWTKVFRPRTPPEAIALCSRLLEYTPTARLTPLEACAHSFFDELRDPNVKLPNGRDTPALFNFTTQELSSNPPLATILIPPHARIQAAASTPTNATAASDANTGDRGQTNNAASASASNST

With `CC[C@@H](C(=O)[C@@H](C)[C@@H](O)[C@H](C)[C@@H]1O[C@@H]([C@@H](CC)C(=O)O)CC[C@@H]1C)[C@H]1O[C@]2(C=C[C@@H](O)[C@]3(CC[C@@](C)([C@H]4CC[C@](O)(CC)[C@H](C)O4)O3)O2)[C@H](C)C[C@@H]1C` [Salinomycin], the “potency in inhibiting cancer differentiation in proportion to paclitaxel” value in test [1] is listed as “up to 100 times”.
As for “VEPQKAAEEAIHRAEAVQR [mutant Axin peptide, VEPQKAAEEAIHRAEAVQR]”, the Kd in test [2] (immobilized GSK3 protein, read-out: binding to GSK3 (could not bind up to)) is greater than 100 µM.
For `CC[C@H](C)[C@H](NC(=O)[C@H](CC(C)C)NC(=O)[C@H](CCC(=O)O)NC(=O)[C@H](CCC(=O)O)NC(=O)[C@H](C)NC(=O)[C@H](Cc1ccccc1)NC(=O)[C@H](CCCCN)NC(=O)[C@H](CCC(N)=O)NC(=O)[C@@H]1CCCN1C(=O)[C@H](CCC(=O)O)NC(=O)[C@@H](N)C(C)C)C(=O)N[C@@H](Cc1c[nH]cn1)C(=O)N[C@@H](CCCNC(=N)N)C(=O)N[C@@H](CC(C)C)C(=O)N[C@@H](CCC(=O)O)C(=O)N[C@@H](C)C(=O)N[C@H](C(=O)N[C@@H](CCC(N)=O)C(=O)N[C@@H](CCCNC(=N)N)C(=O)O)C(C)C` [wild-type Axin peptide, VEPQKFAEELIHRLEAVQR], the Kd in test [2] (immobilized GSK3 beta, read-out: Equilibrium dissociation constant, KD) was 35 µM.
